According to patent publication US9663789B2, “PME-1 as a biomarker to predict and diagnose endometrial and breast cancer and gene silencing of PME-1 to inhibit epithelial to mesenchymal transition” (MEDICAL DIAGNOSTIC LABORATORIES, LLC, priority 2013, dated 2017):

Legend:
Ishikawa cells [1] = assay: Trans-well migration assay; format: cell-based, human; conditions: 24 hr, collagen, 30% FBS bottom chamber
Experimental: We next asked if PME-1 inhibition led to decreased cell migration by completing a trans-well migration assay. Cells were synchronized for 24 hours in media containing 0% FBS. For this experiment, DMSO was again used as the vehicle control and Ishikawa cells were treated with DMSO (control) or 50 nM ABL-127 or 20 μM AMZ-30 for 24 hr and were allowed to migrate through a collagen-coated well towards the bottom chamber, containing media with 30% FBS.
The assay was completed with ECC-1 endometrial carcinoma cell lines following kit instructions Cultrex 96 Well Collagen IV Cell Invasion Assay (cat #3458-096-K). Briefly, cells were serum starved for 24 hours prior to experimentation, then counted and put into the top chamber of a collagen type IV coated Transwell membrane at a concentration of 1×10^6 cells/well in 0% FBS. The bottom chamber contained 30% FBS. Cells were allowed to invade at 37° C. humid chamber incubator for 24 hours. Cells that invaded were analyzed using the kit provided Calcein-AM and fluorescence was read using FluoStar Galaxy.

recombinant PME-1_des3 = recombinant PME-1_des3 (Homo sapiens, UniProt Q9Y570); assay: Thermal melt (thermal shift) assay; format: binding; conditions: 50 μM ABL-127; PME-1+DMSO vehicle ˜55° C.
Experimental: There are several commercially available covalent PME-1 inhibitors that we have analyzed as potential endometrial cancer therapeutics. To confirm that the inhibitors directly bind PME-1, we completed a thermal melt assay. One micromole (1 μmole) of recombinant PME-1_des3, of which the last 3 amino acids are deleted, were pre-incubated with SYBR orange in the presence of 50 μM ABL-127 (a potent covalent PME-1 inhibitor, squares) or 0.05% DMSO (vehicle, circles) for 10 minutes (FIG. 25) at 37° C. We then performed a thermal gradient, increasing the temperature by 2° C. each minute from 37° C. to 95° C. and fluorescent signal was detected at 492-601 nm on a thermal cycler. The increase in Tm from ˜55° C. (PME-1+DMSO, circles) to ˜65° C. (PME-1+ABL-127, squares) indicated thermal stabilization of the PME-1 protein via direct binding of the ABL-127 inhibitor (FIG. 25).
The assay was completed by first conducting a 10 min pre-incubation of one μmole of recombinant PME-1des3 with 50 μM ABL127 (Sigma) or vehicle (0.05% DMSO) in the presence of SYBR Orange (1:1,000, v/v, Sigma) at 37° C. in 1×NEB buffer 2 (50 mM NaCl, 10 mM Tris-HCl, 10 mM MgCl2, 1 mM DTT, pH 7.9 at 25° C.), a thermal gradient was performed increasing temperature by 2° C. per minute increments from 37° to 95° C. and fluorescence (492 nm-610 nm) was acquired on a thermal cycler Mx3005P (Stratagene).

Ishikawa cells [2] = assay: Foci formation assay, Ishikawa cells; format: cell-based, human; conditions: DMSO set to 100%
Experimental: This study was completed in Ishikawa endometrial cancer cells.
1,000 cells were plated in a six well tissue culture dish in selection media (to include 5 μg/ml puromycin) (InvivoGen). Cells were allowed to adhere and grow in a 5% CO2, 37° C. incubator for 10 to 14 days. […] Cells were stained with 1% crystal violet (Sigma Aldrich) for five minutes and rinsed with PBS. Colonies were counted and data is presented as the percentage of change compared to the control. All Experiments were repeated at least three times.

RL95-2 cells = assay: Colony forming / invasive growth assay in Matrigel; format: cell-based, human; conditions: RL95-2, 10 ng/ml TGF-β, 10 days
Experimental: To determine if PME-1 contributes to the more invasive and metastatic phenotypes, we performed a colony forming assay in matrigel.
The 3D On Top Matrigel Assay was completed in 24 well dishes. Briefly, the bottoms of 24 well dishes were coated with 50 μl BD Matrigel Basement Matrix Phenol Red Free (BD Biosciences cat. #356237) and allowed to solidify at 37° C. 10^5 cells were suspended in 250 μl chilled medium containing either 10 ng/ml of TGF-b or vehicle and allowed to settle at 37° C. for 30 minutes. Chilled medium containing 10% of Matrigel was added by pipetting gently down the sidewall of the well and incubated at 37° C. for ten days changing top medium every second day. Colony counts were performed on the tenth day; averages were taken from three fields of view using a 10× objective. Experiment was repeated three times.

PME-1 [3] = assay: Quantitative real-time PCR of PME-1 expression after TGF-β treatment; format: cell-based, human; conditions: RL95-2 control cells and +PME-1 cells, TGF-β 24 hours
Experimental: In this study, we transfected RL95-2 cells to express empty vector (Control), over-expressing PME-1 (+PME-1) or expressing shRNA against PME-1 (−PME-1 SEQ ID NO: 2) followed by serum starvation for 24 hours. Afterwards, either vehicle or TGF-β treatment was performed at the end of the 24 hours. TGF-β was used to induce cells to initiate the EMT program. Gene expression analysis was conducted using quantitative real-time PCR.
Total RNA was extracted with Qiagen RNAEasy kit from RL95-2 cells. cDNA was synthesized using 500 ng-1 μg of RNA and SuperScript VILO c-DNA mix (Life Technologies). Taqman probes and PCR-mix were purchased from Life Technologies. All samples were run in triplicates. Results are representative of three independent experiments in which genes of interest were normalized to the house-keeping gene, 18S or GAPDH, where fold-change was calculated using the ddCt method.

PME-1 [4] = assay: Western blot of PME-1 protein in RL95-2 cells; format: cell-based, human; conditions: GAPDH loading control
Experimental: We prepared RL95-2 cell lines expressing empty vector (control), over-expressing PME-1 (+PME-1), or expressing shRNA against PPME1, the gene that codes for PME-1 protein (−PME-1). Using these cells, we confirmed the appropriate level of PME-1 via real-time RT-PCR (data not shown) and Western blot analysis (FIG. 8). GAPDH was used as a loading control.
We also prepared two different shRNAs targeted against PME-1.
15 μg of protein was used for western analysis. PME-1 antibody (Santa Cruz) and COXIV (Cell Signaling Technologies) were used for detection of proteins and the blots were developed using chemiluminescence (Pierce ECL Western Blotting Substrate—Thermo Scientific) on the GE ImageQuant LAS 4000. For analysis of Akt, ERK, and β-catenin signaling in tissue culture, western analyses were completed as follows. RL95-2 cells stably infected with lentivirus expressing constructs were selected with puromycin (Invivogen). The cells were incubated with either 50 μM Akt inhibitor (LY 294002, Cell Signaling Technologies) or 40 μM ERK inhibitor (V0126, Cell Signaling Technologies) for 1-2 hours at 37° C. 1.5× Laemelli buffer (0.5 M Tris pH6.8, […], 10% sodium dodecyl sulfate, 100 mM EDTA) was used to prepare cell lysates. 20 μg of protein was used for western analysis. […]

recombinant PME-1_des3, sequence (Q9Y570 1-383): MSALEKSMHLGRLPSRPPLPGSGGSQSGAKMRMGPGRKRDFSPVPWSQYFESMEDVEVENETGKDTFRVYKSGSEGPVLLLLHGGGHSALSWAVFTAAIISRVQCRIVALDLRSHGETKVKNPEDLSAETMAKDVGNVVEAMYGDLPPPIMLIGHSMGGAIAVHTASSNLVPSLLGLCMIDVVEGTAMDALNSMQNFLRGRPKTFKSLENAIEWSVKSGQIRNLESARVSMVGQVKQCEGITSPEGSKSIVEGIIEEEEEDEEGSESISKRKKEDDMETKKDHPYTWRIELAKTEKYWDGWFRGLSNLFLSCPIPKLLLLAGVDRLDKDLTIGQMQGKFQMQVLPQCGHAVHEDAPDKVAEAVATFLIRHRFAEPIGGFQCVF

For COC(=O)N1C(=O)C(c2ccccc2)(C2CCCC2)N1C(=O)OC (stereo in doubt) [ABL-127, (3R)-Dimethyl 3-cyclopentyl-4-oxo-3-phenyl-1,2-diazetidine-1,2,-dicarboxylate], the “percentage of cells capable of migrating” value (Ishikawa cells [1]; 50 nM) was “dramatic decrease in the percentage of cells that are capable of migrating”, the “Tm of PME-1 with inhibitor” value (recombinant PME-1_des3) was about 65 °C and the “decrease in the amount of foci formed” value (Ishikawa cells [2]; 50 nM every 2-3 days for 10 days) was about 50%.

N#C/C(=C\c1cccn1S(=O)(=O)c1cccc([N+](=O)[O-])c1)S(=O)(=O)c1ccc(F)cc1 [AMZ-30, (E)-2-(4-Fluorophenylsulfonyl)-3-(1-(3-nitrophenylsulfonyl)-1H-pyrrol-2-yl)-acrylonitrile] was tested, and the “percentage of cells capable of migrating” value (Ishikawa cells [1]; 20 μM) was “dramatic decrease in the percentage of cells that are capable of migrating” and the “decrease in the amount of foci formed” value (Ishikawa cells [2]; 25 μM every 2-3 days for 10 days) was about 50%.

In the case of TGF-β, the “colony number in Matrigel” value (RL95-2 cells) was “overall decrease in colony number” and the “increase in PME-1 expression” value (PME-1 [3]) was about 2 fold.

With “shPPME1 no. 1: shRNA against PPME1, target sequence SEQ ID NO: 1 GTACAGCTATGGATGCACTTA, bp 554-574; full hairpin SEQ ID NO: 7 (CCGGGTACAGCTATGGATGCACTTACTCGAGTAAGTGCATCCATAGCTGTACTTTTT; listed as Homo sapiens)” the “PME-1 levels by Western blot analysis” value (PME-1 [4]) was “significantly decreased PME-1 levels”.
